30 molecules from patent US10696692B2, “Amido-benzyl sulfone and sulfoxide derivates” (Forma TM, LLC, priority 2012, dated 2020) can be followed below.

For experiment [1], the system named is A2780 cells. The experiment is described as follows: Assay 2: In-Vitro Cell Proliferation Assay (A2780 cells, SRB readout, 72 hours).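 Also: viable cells counted via sulforhodamine B staining, absorbance at 570 nm, after 72 h exposure at 37 °C, DMSO 0.1% as control, media-only background subtracted.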 It is filed as cell-based. The settings on record: Homo sapiens, A2780, 72 h, A2780 cells, 72 hours, SRB; read-out: Cell Proliferation (IC50).
The target of experiment [2] is NAMPT (Homo sapiens (Human), UniProt P43490). The experiment is described as follows: Assay 1: Biochemical Inhibition Assay (NAMPT enzymatic reaction, NMN quantified by mass spectrometry).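 Also: recombinant His-tagged human NAMPT preincubated with compound 15 min, then reacted 30 min at rt with 1 µM NAM, 100 µM PRPP, 2.5 mM ATP, NMN product read by RapidFire MS, normalized to L-Cystathionine internal standard.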 The settings on record: read-out: Biochemical (IC50).
NAMPT, sequence (P43490 whole entry): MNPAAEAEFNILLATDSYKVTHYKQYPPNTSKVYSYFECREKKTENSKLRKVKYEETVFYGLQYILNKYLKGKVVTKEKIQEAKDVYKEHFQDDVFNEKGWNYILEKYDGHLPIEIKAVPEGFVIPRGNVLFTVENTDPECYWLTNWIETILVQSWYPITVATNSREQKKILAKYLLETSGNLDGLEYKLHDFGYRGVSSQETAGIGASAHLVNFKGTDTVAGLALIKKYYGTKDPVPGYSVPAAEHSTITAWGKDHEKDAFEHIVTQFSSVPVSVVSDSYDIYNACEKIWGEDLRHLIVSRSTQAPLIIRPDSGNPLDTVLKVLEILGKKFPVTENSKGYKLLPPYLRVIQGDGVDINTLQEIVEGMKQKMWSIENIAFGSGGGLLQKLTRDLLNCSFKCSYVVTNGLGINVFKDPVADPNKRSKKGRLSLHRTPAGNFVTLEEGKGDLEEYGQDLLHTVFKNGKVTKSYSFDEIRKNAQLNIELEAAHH

With `CC(C)(C)OC(=O)N1CCCC12CCN(S(=O)(=O)c1ccc(CNC(=O)c3ccc4nccn4c3)cc1)CC2` [Example 125, 8-(4-{[(Imidazo[1,2-a]pyridine-6-carbonyl)-amino]-methyl}-benzenesulfonyl)-1,8-diaza-spiro[4.5]decane-1-carboxylic acid tert-butyl ester], the IC50 in experiment [1] came out at 0.00137 µM; in experiment [2] it was 0.0112 µM.

Take `CC(C)(C)OC(=O)NC1CC2(CCN(S(=O)(=O)c3ccc(CNC(=O)c4ccc5nccn5c4)cc3)CC2)C1` [Example 127]: the IC50 in experiment [1] came out at 0.00277 µM; in experiment [2] it was 0.0145 µM.

Turning to `CC(C)(C)OC(=O)NCC12CC(CN1S(=O)(=O)c1ccc(CNC(=O)c3ccc4nccn4c3)cc1)C2` [Example 129, [2-(4-{[(Imidazo[1,2-a]pyridine-6-carbonyl)-amino]-methyl}-benzenesulfonyl)-2-aza-bicyclo[2.1.1]hex-1-ylmethyl]-carbamic acid tert-butyl ester], the IC50 came to 0.00875 µM in experiment [1] and 0.034 µM in experiment [2].

Consider `CC(C)(C)OC(=O)N1CCC2(CCCN(S(=O)(=O)c3ccc(CNC(=O)c4ccc5nccn5c4)cc3)C2)CC1` [Example 131, 2-(4-{[(Imidazo[1,2-a]pyridine-6-carbonyl)-amino]-methyl}-benzenesulfonyl)-2,9-diaza-spiro[5.5]undecane-9-carboxylic acid tert-butyl ester], for which the IC50 in experiment [1] amounted to 0.0058 µM; in experiment [2] it was 0.0404 µM.

As to `O=C(NCc1ccc(S(=O)(=O)N2CC3COCC(C2)C3O)cc1)c1ccc2nccn2c1` (stereo not drawn) [Example 138, Imidazo[1,2-a]pyridine-6-carboxylic acid 4-(9-hydroxy-3-oxa-7-aza-bicyclo[3.3.1]nonane-7-sulfonyl)-benzylamide], the IC50 was determined as 0.0249 µM in experiment [1] and 0.0288 µM in experiment [2].

In the case of `CC1(O)CCN(S(=O)(=O)c2ccc(CNC(=O)c3ccc4nccn4c3)cc2)CC1` [Example 145, Imidazo[1,2-a]pyridine-6-carboxylic acid 4-(4-hydroxy-4-methyl-piperidine-1-sulfonyl)-benzylamide], the IC50 was 0.0125 µM in experiment [1] and 0.0284 µM in experiment [2].

For `O=C(NCc1ccc(S(=O)(=O)N2CCC3OCCC3C2)cc1)c1ccc2nccn2c1` (stereo not drawn) [Example 146, Imidazo[1,2-a]pyridine-6-carboxylic acid 4-(hexahydro-furo[3,2-c]pyridine-5-sulfonyl)-benzylamide], the figures for the IC50 in experiment [1] and in experiment [2] were 0.0031 µM and 0.0127 µM, respectively.

With `O=C(NCc1ccc(S(=O)(=O)N2CCC[C@H](O)C2)cc1)c1cc2ccncc2o1` [Example 150, Furo[2,3-c]pyridine-2-carboxylic acid 4-((S)-3-hydroxy-piperidine-1-sulfonyl)-benzylamide], the IC50 in experiment [1] came out at 0.0458 µM; in experiment [2], 0.0315 µM.

Take `O=C(NCc1ccc(S(=O)(=O)N2CCC[C@@H](O)C2)cc1)c1cc2ccncc2o1` [Example 151, Furo[2,3-c]pyridine-2-carboxylic acid 4-((R)-3-hydroxy-piperidine-1-sulfonyl)-benzylamide]: the IC50 amounted to 0.045 µM in experiment [1] and 0.0274 µM in experiment [2].

As to `O=C(NCc1ccc(S(=O)(=O)N2CCC3(CCNC3)CC2)cc1)c1ccc2nccn2c1` [Example 152, Imidazo[1,2-a]pyridine-6-carboxylic acid 4-(2,8-diaza-spiro[4.5]decane-8-sulfonyl)-benzylamide], the IC50 in experiment [1] amounted to 0.0305 µM; in experiment [2], 0.0321 µM.

Consider `O=C(NCc1ccc(S(=O)(=O)N2CC3COCC3C2)cc1)c1cc2ccncc2o1` (stereo not drawn) [Example 153, Furo[2,3-c]pyridine-2-carboxylic acid 4-(tetrahydro-furo[3,4-c]pyrrole-5-sulfonyl)-benzylamide], for which the IC50 in experiment [1] amounted to 0.0489 µM; in experiment [2], 0.0165 µM.

For the molecule `O=C(NCc1ccc(S(=O)(=O)N2CCC(N3CCCC3)CC2)cc1)c1cc2ccncc2o1` [Example 157, Furo[2,3-c]pyridine-2-carboxylic acid 4-(4-pyrrolidin-1-yl-piperidine-1-sulfonyl)-benzylamide], the IC50 in experiment [1] is 0.0149 µM; in experiment [2] it was 0.0179 µM.

Regarding `O=C(NCc1ccc(S(=O)(=O)N2C[C@H]3C[C@@H]2C3)cc1)c1ccc2nccn2c1` [Example 159, Imidazo[1,2-a]pyridine-6-carboxylic acid 4-(2-aza-bicyclo[2.1.1]hexane-2-sulfonyl)-benzylamide], the results for the IC50 in experiment [1] and in experiment [2] were 0.0133 µM and 0.012 µM, respectively.

For `O=C(NCc1ccc(S(=O)(=O)N2CC3CC3C2)cc1)c1ccc2nccn2c1` (stereo not drawn) [Example 160, Imidazo[1,2-a]pyridine-6-carboxylic acid 4-(3-aza-bicyclo[3.1.0]hexane-3-sulfonyl)-benzylamide], the IC50 came to 0.0153 µM in experiment [1] and 0.0047 µM in experiment [2].

With `O=C(NCc1ccc(S(=O)(=O)N2CCN(C3CCOCC3)CC2)cc1)c1cc2ccncc2o1` [Example 170, Furo[2,3-c]pyridine-2-carboxylic acid 4-[4-(tetrahydro-pyran-4-yl)-piperazine-1-sulfonyl]-benzylamide], the IC50 in experiment [1] came to 0.0119 µM; in experiment [2], 0.0304 µM.

On to `CC(=O)N1CCC(S(=O)(=O)c2ccc(CNC(=O)c3ccc4nccn4c3)cc2)CC1` [Example 171, Imidazo[1,2-a]pyridine-6-carboxylic acid 4-(1-acetyl-piperidine-4-sulfonyl)-benzylamide], for which the IC50 in experiment [1] worked out at 0.0422 µM; in experiment [2], 0.0398 µM.

For `COCCN1CCN(S(=O)(=O)c2ccc(CNC(=O)c3cnc4[nH]ncc4c3)cc2)CC1` [Example 173, 1H-Pyrazolo[3,4-b]pyridine-5-carboxylic acid 4-[4-(2-methoxy-ethyl)-piperazine-1-sulfonyl]-benzylamide], the IC50 in experiment [1] was 0.0862 µM; in experiment [2], 0.183 µM.

In the case of `O=C(NCc1ccc(S(=O)(=O)N2CCC(F)(F)C2)cc1)c1cnc2[nH]ncc2c1` [Example 175, 1H-Pyrazolo[3,4-b]pyridine-5-carboxylic acid 4-(3,3-difluoro-pyrrolidine-1-sulfonyl)-benzylamide], the IC50 in experiment [1] was 0.127 µM; in experiment [2], 0.0652 µM.

For the molecule `CC(C)(C)OC(=O)N1CCC2(CCCN2S(=O)(=O)c2ccc(CNC(=O)c3ccc4nccn4c3)cc2)CC1` [Example 185, 1-(4-{[(Imidazo[1,2-a]pyridine-6-carbonyl)-amino]-methyl}-benzenesulfonyl)-1,8-diaza-spiro[4.5]decane-8-carboxylic acid tert-butyl ester], the IC50 came out at 0.118 µM in experiment [1] and 0.283 µM in experiment [2].

Regarding `CC(C)CN1CCC([S+]([O-])c2ccc(CNC(=O)c3cnc4nccn4c3)cc2)CC1` (stereo not drawn) [Example 188, N-[[4-[(1-isobutyl-4-piperidyl)sulfinyl]phenyl]methyl]imidazo[1,2-a]pyrimidine-6-carboxamide], the results for the IC50 in experiment [1] and in experiment [2] were 0.0311 µM and 0.0077 µM, respectively.

For the molecule `CC(C)CN1CCC([S+]([O-])c2ccc(CNC(=O)c3cnc4[nH]ncc4c3)cc2)CC1` (stereo not drawn) [Example 190, N-[[4-[(1-isobutyl-4-piperidyl)sulfinyl]phenyl]methyl]-1H-pyrazolo[3,4-b]pyridine-5-carboxamide], the IC50 in experiment [1] amounted to 0.023 µM; in experiment [2] it was 0.13 µM.

Regarding `CC(C)CN1CCC([S+]([O-])c2ccc(CNC(=O)c3cc4cnccc4[nH]3)cc2)CC1` (stereo not drawn) [Example 191, N-[[4-[(1-isobutyl-4-piperidyl)sulfinyl]phenyl]methyl]-1H-pyrrolo[3,2-c]pyridine-2-carboxamide], the values for the IC50 in experiment [1] and in experiment [2] were 0.0056 µM and 0.0263 µM, respectively.

In the case of `CN1CCC2(C1)CN(S(=O)(=O)c1ccc(CNC(=O)c3cc4ccncc4o3)cc1)C2` [Example 197, N-[[4-[(6-methyl-2,6-diazaspiro[3.4]octan-2-yl)sulfonyl]phenyl]methyl] furo[2,3-c]pyridine-2-carboxamide], the IC50 is 0.0168 µM in experiment [1] and 0.00283 µM in experiment [2].

Take `O=C(NCc1ccc(S(=O)(=O)C2CCOCC2)cc1)c1cnc2[nH]ncc2c1` [Example 198, N-[(4-tetrahydropyran-4-ylsulfonylphenyl)methyl]-1H-pyrazolo[3,4-b]pyridine-5-carboxamide]: the IC50 in experiment [1] was found to be 0.452 µM; in experiment [2], 0.308 µM.

In the case of `O=C(NCc1ccc(S(=O)(=O)C2CCOCC2)cc1)c1cnc2nccn2c1` [Example 199, N-[(4-tetrahydropyran-4-ylsulfonylphenyl)methyl] imidazo[1,2-a]pyrimidine-6-carboxamide], the results for the IC50 in experiment [1] and in experiment [2] were 0.185 µM and 0.00865 µM, respectively.

For the molecule `O=C(NCc1ccc(S(=O)(=O)C2CCOCC2)cc1)c1ccc2nccn2c1` [Example 200, N-[(4-tetrahydropyran-4-ylsulfonylphenyl)methyl] imidazo[1,2-a]pyridine-6-carboxamide], the IC50 in experiment [1] was found to be 0.0142 µM; in experiment [2], 0.0345 µM.

With `O=C(NCc1ccc(S(=O)(=O)C2CCNCC2)cc1)c1cnc2[nH]ncc2c1` [Example 203, N-[[4-(4-piperidylsulfonyl)phenyl]methyl]-1H-pyrazolo[3,4-b]pyridine-5-carboxamide], the IC50 in experiment [1] worked out at 0.731 µM; in experiment [2] it was 0.669 µM.

Turning to `O=C(NCc1ccc(S(=O)(=O)C2CCNCC2)cc1)c1cc2ccncc2s1` [Example 204, N-[[4-(4-piperidylsulfonyl)phenyl]methyl]thieno[2,3-c] pyridine-2-carboxamide], the IC50 in experiment [1] was 0.137 µM; in experiment [2] it was 0.066 µM.

With `O=C(NCc1ccc(S(=O)(=O)C2CCN(C3CCOCC3)CC2)cc1)c1cnc2[nH]ncc2c1` [Example 206, N-[[4-[(1-tetrahydropyran-4-yl-4-piperidyl)sulfonyl]phenyl]methyl]-1H-pyrazolo[3,4-b]pyridine-5-carboxamide], the IC50 in experiment [1] came to 0.0211 µM; in experiment [2], 0.0592 µM.

On to `CC(=O)N1CCC(S(=O)(=O)c2ccc(CNC(=O)c3cc4ccncc4o3)cc2)CC1` [Example 207, N-[[4-[(1-acetyl-4-piperidyl)sulfonyl]phenyl]methyl]furo[2,3-c]pyridine-2-carboxamide], for which the IC50 stood at 0.025 µM in experiment [1] and 0.0293 µM in experiment [2].
